Experimental data published in patent publication US20230210984A1, “ADOPTIVE IMMUNOTHERAPY” (The Council of the Queensland Institute of Medical Research, priority 2019, published 2023).

Experiments:
[1] = test system: SNU719 and C666.1 cells; assay: Flow cytometry of cancer cell intrinsic pathways and immune regulatory molecules; assay type: cell-based; settings: 16 hours, JQ1 2.5 μM; for MHC-Class I expression: inhibitor alone and in combination with HLA-matched T cells; for MHC-Class I expression / MYC expression / pERK1/2 expression / pSTAT3 expression: selumatinib 1 μM
Description: FIG. 13: Phenotyping the impact of dual combination of MEK1/2 inhibitor and HLA matched allogeneic EBV specific T coils on cancer cell intrinsic pathways. Representation of the cancer cell phenotype after 16 hours of individual and dual combination of selumatinib (1 μM) and HLA-matched EBV specific T cells (effector-to-target ratio of 25:1) among SNU719 (upper panel) and C666.1 (lower panel) on the expression of (A) pERK1/2; (B) MHC-Class I; (C) pSTAT3; and (D) MYC performed using flow cytometry. The data are represented as the mean±SD from three independent experiments. P-values were calculated using one-way ANOVA: ns=not significant, *p<0.05, **p<0.01, ***p<0.001 and ****p<0.0001.
FIG. 17: Phenotyping the impact of dual combination of JQ1 inhibitor and MLA matched allogeneic EBV-specific T cells on cancer cell intrinsic pathways. Representation of the cancer cell phenotype after 16 hours of individual and dual combination of JQ1 (2.5 μM) and HLA-matched EBV specific T cells (effector-to-target ratio of 25:1) among SNU719 (upper panel) and C666.1 (lower panel) on the expression of (A) MYC; (B) pERK1/2; (C) pAKT; and (D) pSTAT3 performed using flow cytometry. The data are represented as the mean±SD from three independent experiments. P-values were calculated using one-way ANOVA: ns=not significant, *p<0.05, **p<0.01, ***p<0.001 and ****p<0.0001.
FIG. 18: Phenotyping the impact of dual combination of JQ1 inhibitor and HLA matched allogeneic EBV specific T cells on immune regulatory molecules. Representation of the cancer cell phenotype after 16 hours of individual and dual combination of JQ1 (2.5 μM) and HLA-matched EBV specific T cells (effector-to-target ratio of 25:1) among SNU719 (upper panel) and C666.1 (lower panel) on the expression of (A) MHC Class-I; (B) PD-L1; and (C) CD47 performed using flow cytometry. The data are represented as the mean±SD from three independent experiments. P-values were calculated using one-way ANOVA: ns=not significant, *p<0.05, **p<0.01, ***p<0.001 and ****p<0.0001.
In next set of experiments, we wanted to investigate the effect of the dual combination the cancer cell intrinsic pathway and describe the rationale of the effective combination of MEK1/2 inhibition with T cell treatment. […] As a result, we observed upregulation of MHC-Class I expression in presence of selumatinib alone and in combination with respective HLA-matched T cells (FIG. 13B). […] Thus, inhibition of MEK1/2 pathway results in upregulation of MHC-class I expression via upregulation of STAT3 pathway and downregulation of MYC which enabling better therapeutic compatibility in presence of HLA-matched allogeneic T cells.
Next, we wanted to determine the specificity of the combination and as such we challenged SNU719 and C666.1 cells with HLA-mismatch allogeneic T cells alongside JQ1 inhibitor individually and in combination. […] In next set of experiments, we wanted to investigate rationale of the effective combination of JQ1 inhibition with T cell treatment. […] As a result, it caused downregulation of pERK1/2, pAKT and pSTAT3 expression (FIG. 17B-C).

[2] = test system: SNU719 derived xenograft tumour; assay: SNU719 xenograft, selumatinib and TIG-001 in vivo; set-up: species or system NRG mice
Description: FIG. 19: Assessment of therapeutic efficacy of dual combination of selumatinib and allogeneic EBV-specific cytotoxic T cells in vivo. (A) The impact of the dual combination of selumatinib and allogeneic T cells (TIG-001) on the outgrowth of EBV-positive SNU719 xenografts in NRG mice was assessed. Tumour-bearing mice were treated with two doses of HLA-matched T cells (2×10^7 T cells per dose per mouse indicated by black arrow) and selumatinib (12.5 mg/Kg) orally for continuous 14 days, either individually or in combination. The growth of each xenograft is represented as the mean tumour area±SD from n=9 mice/group. (B) Gross morphology of the tumours isolated from the mice of indicated treatment groups. (C) Representation of tumour weight described in (B) from the mice of indicated treatment groups. The data are represented as the mean±SD from n=3 mice per group. P-values were calculated using one-way ANOVA. (D) Representation of viable percentage of tumour infiltrates observed across individually treated allogeneic T cells (TIG-001) and in combination with selumatinib as determined by CD45, CD3 and CD8 expression using flow cytometry. P-values were calculated using Student T test. (E) Kaplan-Meier overall survival analysis of the mice bearing EBV-associated tumours as described in (A) following individual and combination treatment of selumatinib and allogeneic T cells. The animals' survival (n=6 mice/group) was monitored over the indicated period of time and statistical significance was analysed by log-rank test: ns=not significant, *p<0.05, **p<0.01, ***p<0.001 and ****p<0.0001.
In next set of experiments, we wanted to investigate the effect of the above described small molecules in combination of HLA matched allogeneic EBV-specific T cells in vivo. We used the combination of selumatinib and HLA-matched T cell product (TIG-001) to treat SNU719 derived xenograft tumour model in female NRG mice. Once the xenograft reached the size of ˜25 mm^2, we treated the mice with two infusion of TIG-001 (2×10^7 cells per infusion) individually and in combination with daily dosage selumatinib (12.5 mg/kg), administered orally for 14 days. […] Next, we phenotyped the infiltration of the human origin lymphocytes in these tumours using flow cytometry.

[3] = test system: SNU719 cells; assay: Xcellegence growth curve (Example 2); assay type: cell-based; settings: dual combination with EBV-specific T cells vs individual treatment
Description: P-values were calculated using one-way ANOVA: *p<0.05, **p<0.01, ***p<0.001 and ****p<0.0001.
We treated SNU719 cells (gastric cancer cells) with MEK1/2 inhibitor (AZD6244 (or selumetanib) and trematinib) at concentration of 0.5 μM and 1.0 μM respectively, as individual treatment or in combination with EBV-specific T cells (25:1) as effector to target ratio.

Row | Structure (SMILES) | CD47 expression [1] | PD-L1 expression [1] | pAKT expression [1] | MHC-Class I expression [1] | MYC expression [1] | pERK1/2 expression [1] | pSTAT3 expression [1] | number of viable CD45+CD3+CD8+ cells in tumours ([2]; combination with TIG-001 vs individually treated T cell group) | survival rate ([2]; dual combination with TIG-001 vs individual treatment group) | size of the tumours ([2]; dual combination with TIG-001 vs individual treatment, when control reached 150 mm^2) | tumour progression ([2]; selumatinib 12.5 mg/kg orally 14 days plus two infusions of TIG-001 (2×10^7 cells) vs individual treatment) | rate of cell death (Xcellegence) [3]
1 | Cc1sc2c(c1C)C(c1ccc(Cl)cc1)=N[C@@H](CC(=O)OC(C)(C)C)c1nnc(C)n1-2 [JQ1] | downregulation | downregulation | downregulation | enhancing | significant reduction | downregulation | downregulation |  |  |  |  | 
2 | Cn1cnc2c(F)c(Nc3ccc(Br)cc3Cl)c(C(=O)NOCCO)cc21 [selumetanib] |  |  |  | upregulation | downregulation | significant reduction | upregulation | significantly more | better survival rate | significantly smaller | significant reduction | faster cell death
